Tests used:
Format in all cases: functional
RPMI-8226 = experiment: Growth inhibition of human RPMI8226 cells by sulforhodamine B assay
BT-549 = experiment: Growth inhibition of human BT549 cells assessed as growth inhibition at 10 uM by sulforhodamine B assay; settings: read-out: GI
MCF7 [1] = experiment: Growth inhibition of human MCF7 cells assessed as growth inhibition at 10 uM by sulforhodamine B assay; settings: read-out: GI
PC-3 = experiment: Growth inhibition of human PC3 cells assessed as growth inhibition at 10 uM by sulforhodamine B assay; settings: read-out: GI
OVCAR-8 [2] = experiment: Growth inhibition of human OVCAR8 cells assessed as growth inhibition at 10 uM by sulforhodamine B assay; settings: read-out: GI
IGROV-1 = experiment: Growth inhibition of human IGROV1 cells assessed as growth inhibition at 10 uM by sulforhodamine B assay; settings: read-out: GI
UACC-62 = experiment: Growth inhibition of human UACC62 cells assessed as growth inhibition at 10 uM by sulforhodamine B assay; settings: read-out: GI
UACC-257 = experiment: Growth inhibition of human UACC257 cells assessed as growth inhibition at 10 uM by sulforhodamine B assay; settings: read-out: GI
HT-29 [3] = experiment: Growth inhibition of human HT-29 cells assessed as growth inhibition at 10 uM by sulforhodamine B assay; settings: read-out: GI
[4] = Growth inhibition of human HCC2998 cells assessed as growth inhibition at 10 uM by sulforhodamine B assay; settings: HCC 2998, read-out: GI
NCI-H23 [5] = experiment: Growth inhibition of human NCI-H23 cells assessed as growth inhibition at 10 uM by sulforhodamine B assay; settings: read-out: GI
NCI-H226 = experiment: Growth inhibition of human NCI-H226 cells assessed as growth inhibition at 10 uM by sulforhodamine B assay; settings: read-out: GI
HOP-92 [6] = experiment: Growth inhibition of human HOP92 cells assessed as growth inhibition at 10 uM by sulforhodamine B assay; settings: read-out: GI
[7] = Growth inhibition of human EKVX cells assessed as growth inhibition at 10 uM by sulforhodamine B assay; settings: read-out: GI
K562 [8] = experiment: Growth inhibition of human K562 cells assessed as growth inhibition at 10 uM by sulforhodamine B assay; settings: read-out: GI
786-0 [9] = experiment: Growth inhibition of human 786-0 cells assessed as cell growth at 10 uM by sulforhodamine B assay; settings: read-out: Activity
OVCAR-8 [10] = experiment: Growth inhibition of human OVCAR8 cells assessed as cell growth at 10 uM by sulforhodamine B assay; settings: read-out: Activity
OVCAR-4 = experiment: Growth inhibition of human OVCAR4 cells assessed as cell growth at 10 uM by sulforhodamine B assay; settings: read-out: Activity
OVCAR-3 = experiment: Growth inhibition of human OVCAR3 cells assessed as cell growth at 10 uM by sulforhodamine B assay; settings: read-out: Activity
SNB-19 = experiment: Growth inhibition of human SNB19 cells assessed as cell growth at 10 uM by sulforhodamine B assay; settings: read-out: Activity
KM12 = experiment: Growth inhibition of human KM12 cells assessed as cell growth at 10 uM by sulforhodamine B assay; settings: read-out: Activity
HT-29 [11] = experiment: Growth inhibition of human HT-29 cells assessed as cell growth at 10 uM by sulforhodamine B assay; settings: read-out: Activity
SR = experiment: Growth inhibition of human SR cells assessed as cell growth at 10 uM by sulforhodamine B assay; settings: read-out: Activity
NCI-H322M = experiment: Growth inhibition of human NCI-H322M cells assessed as cell growth at 10^-8 M by sulforhodamine B assay; settings: read-out: Activity
K562 [12] = experiment: Growth inhibition of human K562 cells assessed as cell growth at 10^-8 M by sulforhodamine B assay; settings: read-out: Activity
DU-145 = experiment: Growth inhibition of human DU145 cells by sulforhodamine B assay
A498 = experiment: Growth inhibition of human A498 cells by sulforhodamine B assay
MDA-MB-468 [13] = experiment: Growth inhibition of human MDA-MB-468 cells assessed as cell growth at 10^-4 M by sulforhodamine B assay; settings: read-out: Activity
SNB-75 = experiment: Growth inhibition of human SNB75 cells assessed as cell growth at 10^-4 M by sulforhodamine B assay; settings: read-out: Activity
NCI-H522 = experiment: Growth inhibition of human NCI-H522 cells assessed as cell growth at 10^-4 M by sulforhodamine B assay; settings: read-out: Activity
HOP-62 = experiment: Growth inhibition of human HOP62 cells assessed as cell growth at 10^-4 M by sulforhodamine B assay; settings: read-out: Activity
A549 = experiment: Growth inhibition of human A549/ATCC cells assessed as cell growth at 10^-4 M by sulforhodamine B assay; settings: read-out: Activity
K562 [14] = experiment: Growth inhibition of human K562 cells assessed as cell growth at 10^-4 M by sulforhodamine B assay; settings: read-out: Activity
T47D = experiment: Growth inhibition of human T47D cells assessed as cell growth at 10^-6 M by sulforhodamine B assay; settings: read-out: Activity
MDA-MB-468 [15] = experiment: Growth inhibition of human MDA-MB-468 cells assessed as cell growth at 10^-6 M by sulforhodamine B assay; settings: read-out: Activity
UO-31 = experiment: Growth inhibition of human UO31 cells assessed as cell growth at 10^-6 M by sulforhodamine B assay; settings: read-out: Activity
SF-539 = experiment: Growth inhibition of human SF539 cells assessed as cell growth at 10^-6 M by sulforhodamine B assay; settings: read-out: Activity
SF-268 [16] = experiment: Growth inhibition of human SF268 cells assessed as cell growth at 10^-6 M by sulforhodamine B assay; settings: read-out: Activity
NCI-H460 [17] = experiment: Growth inhibition of human NCI-H460 cells assessed as cell growth at 10^-6 M by sulforhodamine B assay; settings: read-out: Activity
NCI-H23 [18] = experiment: Growth inhibition of human NCI-H23 cells assessed as cell growth at 10^-6 M by sulforhodamine B assay; settings: read-out: Activity
HOP-92 [19] = experiment: Growth inhibition of human HOP92 cells assessed as cell growth at 10^-6 M by sulforhodamine B assay; settings: read-out: Activity
MCF7 [20] = experiment: Growth inhibition of human MCF7 cells assessed as cell growth at 10^-7 M by sulforhodamine B assay; settings: read-out: Activity
SF-268 [21] = experiment: Growth inhibition of human SF268 cells assessed as cell growth at 10^-7 M by sulforhodamine B assay; settings: read-out: Activity
NCI-H460 [22] = experiment: Growth inhibition of human NCI-H460 cells assessed as cell growth at 10^-7 M by sulforhodamine B assay; settings: read-out: Activity
K562 [23] = experiment: Growth inhibition of human K562 cells assessed as cell growth at 10^-7 M by sulforhodamine B assay; settings: read-out: Activity
786-0 [24] = experiment: Growth inhibition of human 786-0 cells assessed as cell growth at 10^-8 M by sulforhodamine B assay; settings: read-out: Activity
[25] = read-out: LC50 (the source's name)
[26] = read-out: pLC50 (the source's name) (converted)

CC(C)=CC(=O)O[C@@H]1CC(C)(C)C[C@H]2C3=CC[C@@H]4[C@@]5(C)CC[C@H](O)C(C)(C)[C@@H]5CC[C@@]4(C)[C@]3(C)CC[C@@]12C(=O)O [Reduced Lantadene B]
GI50 (RPMI-8226; read-out: GI50): 2.43 µM | CC50 (RPMI-8226; [25]): > 100 µM | TGI (RPMI-8226; read-out: TGI): 38.3 µM | GI50 (RPMI-8226; read-out: pGI50 (converted)): 2.45 µM | CC50 (RPMI-8226; [26]): > 100 µM | TGI (RPMI-8226; read-out: pTGI (converted)): 38 µM | inhibition of growth at 10 µM (BT-549): 21.9% | inhibition of growth at 10 µM (MCF7 [1]): 37.3% | inhibition of growth at 10 µM (PC-3): 54.6% | inhibition of growth at 10 µM (OVCAR-8 [2]): 40.1% | inhibition of growth at 10 µM (IGROV-1): 21.7% | inhibition of growth at 10 µM (UACC-62): 32.8% | inhibition of growth at 10 µM (UACC-257): < 10% | inhibition of growth at 10 µM (HT-29 [3]): 50.7% | inhibition of growth at 10 µM [4]: 38% | inhibition of growth at 10 µM (NCI-H23 [5]): 36.6% | inhibition of growth at 10 µM (NCI-H226): 21.3% | inhibition of growth at 10 µM (HOP-92 [6]): 57% | inhibition of growth at 10 µM [7]: 52.3% | inhibition of growth at 10 µM (K562 [8]): 54.8% | growth at 10 µM (786-0 [9]): 61.8% | growth at 10 µM (OVCAR-8 [10]): 59.9% | growth at 10 µM (OVCAR-4): 70.7% | growth at 10 µM (OVCAR-3): 73.9% | growth at 10 µM (SNB-19): 85.6% | growth at 10 µM (KM12): 34.3% | growth at 10 µM (HT-29 [11]): 49.3% | growth at 10 µM (SR): 70.2% | growth at 0.01 µM (NCI-H322M): 90% | growth at 0.01 µM (K562 [12]): 114% | GI50 (DU-145; read-out: GI50): 7.7 µM | CC50 (DU-145; [25]): 61.6 µM | TGI (DU-145; read-out: TGI): 23.5 µM | GI50 (DU-145; read-out: pGI50 (converted)): 7.76 µM | CC50 (DU-145; [26]): 61.7 µM | TGI (DU-145; read-out: pTGI (converted)): 23.4 µM | GI50 (A498; read-out: GI50): 2.83 µM | CC50 (A498; [25]): 41.3 µM | TGI (A498; read-out: TGI): 13.7 µM | GI50 (A498; read-out: pGI50 (converted)): 2.82 µM | CC50 (A498; [26]): 41.7 µM | TGI (A498; read-out: pTGI (converted)): 13.8 µM | growth at 100 µM (MDA-MB-468 [13]): -77% | growth at 100 µM (SNB-75): -38% | growth at 100 µM (NCI-H522): -64% | growth at 100 µM (HOP-62): -60% | growth at 100 µM (A549): -56% | growth at 100 µM (K562 [14]): -1% | growth at 1 µM (T47D): 96% | growth at 1 µM (MDA-MB-468 [15]): 77% | growth at 1 µM (UO-31): 89% | growth at 1 µM (SF-539): 92% | growth at 1 µM (SF-268 [16]): 95% | growth at 1 µM (NCI-H460 [17]): 78% | growth at 1 µM (NCI-H23 [18]): 91% | growth at 1 µM (HOP-92 [19]): 70% | growth at 0.1 µM (MCF7 [20]): 98% | growth at 0.1 µM (SF-268 [21]): 93% | growth at 0.1 µM (NCI-H460 [22]): 100% | growth at 0.1 µM (K562 [23]): 91% | growth at 0.01 µM (786-0 [24]): 97%

CC1(C)C[C@@H](O)[C@]2(C(=O)O)CC[C@]3(C)C(=CC[C@@H]4[C@@]5(C)CC[C@H](O)C(C)(C)[C@@H]5CC[C@]43C)[C@@H]2C1
inhibition of growth at 10 µM (BT-549): < 10% | inhibition of growth at 10 µM (MCF7 [1]): < 10% | inhibition of growth at 10 µM (PC-3): 23.5% | inhibition of growth at 10 µM (OVCAR-8 [2]): < 10% | inhibition of growth at 10 µM (IGROV-1): < 10% | inhibition of growth at 10 µM (UACC-62): 11.8% | inhibition of growth at 10 µM (UACC-257): < 10% | inhibition of growth at 10 µM (HT-29 [3]): < 10% | inhibition of growth at 10 µM [4]: < 10% | inhibition of growth at 10 µM (NCI-H23 [5]): < 10% | inhibition of growth at 10 µM (NCI-H226): < 10% | inhibition of growth at 10 µM (HOP-92 [6]): < 10% | inhibition of growth at 10 µM [7]: < 10% | inhibition of growth at 10 µM (K562 [8]): < 10% | growth at 10 µM (786-0 [9]): 90.7% | growth at 10 µM (OVCAR-8 [10]): 93.7% | growth at 10 µM (OVCAR-4): 96% | growth at 10 µM (OVCAR-3): 101% | growth at 10 µM (SNB-19): 98.2% | growth at 10 µM (KM12): 90.1% | growth at 10 µM (HT-29 [11]): 109% | growth at 10 µM (SR): 78%

Reference: ChEMBL document CHEMBL2413072, “Synthesis and in vitro anticancer studies of novel C-2 arylidene congeners of lantadenes” (2013)
